Test results taken from patent US7456293B2, “Substituted carboxylic acid derivatives for the treatment of diabetes and lipid disorders, their preparation and use” (SK Holding Co., Ltd, priority 2005, dated 2008).
Marks after values point to notes of the source that are not given here.

What was measured:
[1] = test system: db/db mice; assay: Efficacy test for blood glucose and plasma lipid lowering (db/db mice); format: in vivo; conditions: male db/db mice, oral; for BG % max reduction d14 / Fatty Acid % max reduction d14 / Insulin % max reduction d14 / TG % max reduction d14: day 14, vs vehicle; for Insulin % max reduction d7: day 7, vs vehicle
Source text: Mice used in this study were standard model of type II diabetes developed by Jackson Laboratories (Bar Harbor, Me.). Mice (male, 8-wk-old db/db) were housed six per cage in hanging wire bottom cages with standard laboratory conditions. The mice had free access to normal chow (Purina Rodent Chow) and water. At the age of 8-10 weeks, the mice were bled from the tail for glucose matching among the groups (n=6 per group). To test the PPAR-γ effect of the compounds of Examples 1, 2, 3, 4 and 6, mice were then dosed orally with vehicle (CMC) or with two different concentrations (3 or 10 mg/kg/d) of each compound for 7-14 days. Each compound of Examples 1, 2, 3, 4 and 6 was dosed as suspension in 0.5% CMC+0.2% Tween 80 in sterile water. Fresh suspension was prepared for 8 days dosing and kept in a refrigerator. The suspension was administered orally by gavage daily in the morning. The control group received vehicle (dose 10 mL/kg). Blood glucose concentrations (in fed state) were monitored at basal and 3 h post dose on day 14 either by putting a drop of blood from tails on a glucose strip for analysis by a glucometer or using a 10 μL plasma sample in a YSI (Yellow Spring Instruments, OH) analyzer. […] The results are expressed in Table 2 as % maximal reduction that is achieved relative to vehicle treated control group. Animals having more than 300 mg/dL of blood glucose were used for testing. Statistical significance (* P<0.05; ** P<0.01) is given versus the appropriate sample in vehicle treated animals.

[2] = test system: human ApoA1 transgenic mice; assay: Changes in plasma ApoA1, HDL cholesterol and TG levels (human ApoA1 transgenic mice); format: in vivo; conditions: for ApoA1 % increase / HDL Cholesterol % increase / TG % decrease: oral, 8 days
Description: Homozygous human ApoA1 transgenic mouse strains (C57BL/6-TgN1Rub) were purchased from Jackson Laboratories (Bar Harbor, Me.). The mice were grouped by six and housed in hanging wire bottom cages with standard laboratory conditions. The mice had free access to normal chow (Purina Rodent Chow) and water. The grouped mice were then dosed orally with vehicle (CMC) or with different concentrations of the compound of Example 1 (3, 10 or 30 mg/kg/d) for 8 days. Compounds were dosed as suspension in 0.5% CMC+0.2% Tween 80 in sterile water. Fresh suspension was prepared for 8 days dosing and kept in a refrigerator. The suspension was administered orally by gavage daily in the morning. The control group received vehicle (dose 10 mL/kg). Blood samples were collected by cardiac puncture, centrifuged and analyzed for ApoA1, HDL cholesterol, and triglyceride.

[3] = molecular target: T1, hPPAR-γ (Homo sapiens, UniProt P37231); assay: In vitro hPPAR-γ transactivation (GAL4 fusion, SPRAT cells, luciferase); format: cell-based
T1 construct: expressed in transfected cells
T1 sequence (P37231 238-503 limits assumed): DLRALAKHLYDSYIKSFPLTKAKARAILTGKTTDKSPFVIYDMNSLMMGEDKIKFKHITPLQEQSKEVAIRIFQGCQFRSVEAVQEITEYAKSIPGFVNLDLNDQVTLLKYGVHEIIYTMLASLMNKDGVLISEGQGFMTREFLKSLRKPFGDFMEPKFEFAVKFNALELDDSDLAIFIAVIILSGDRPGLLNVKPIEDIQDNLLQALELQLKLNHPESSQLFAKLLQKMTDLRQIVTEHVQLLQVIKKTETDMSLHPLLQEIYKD

[4] = molecular target: T2, hPPAR-δ (Homo sapiens, UniProt Q03181); assay: In vitro hPPAR-δ transactivation (GAL4 fusion, SPRAT cells, luciferase); format: cell-based; conditions: for EC50: 6 hours, read-out: PPAR-δ EC50; for PPAR-δ % Max: relative to TTA = 100
T2 construct: expressed in transfected cells
T2 sequence (Q03181 211-439 limits assumed): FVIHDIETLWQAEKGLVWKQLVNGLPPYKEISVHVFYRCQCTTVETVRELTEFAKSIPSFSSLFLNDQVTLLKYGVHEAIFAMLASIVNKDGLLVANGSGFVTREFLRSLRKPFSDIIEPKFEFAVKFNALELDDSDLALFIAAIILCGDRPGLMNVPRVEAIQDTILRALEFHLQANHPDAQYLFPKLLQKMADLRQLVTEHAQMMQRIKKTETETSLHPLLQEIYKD

[5] = molecular target: T3, hPPAR-α (Homo sapiens, UniProt Q07869); assay: In vitro hPPAR-α transactivation (GAL4 fusion, SPRAT cells, luciferase); format: cell-based
T3 construct: expressed in transfected cells
T3 sequence (Q07869 239-466 limits assumed): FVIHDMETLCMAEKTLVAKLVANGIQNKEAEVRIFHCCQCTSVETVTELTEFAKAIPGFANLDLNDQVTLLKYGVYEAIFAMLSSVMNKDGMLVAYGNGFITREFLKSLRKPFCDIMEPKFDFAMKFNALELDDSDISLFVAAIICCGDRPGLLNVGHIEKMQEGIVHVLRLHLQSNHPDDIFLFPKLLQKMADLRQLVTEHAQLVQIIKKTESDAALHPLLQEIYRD

[6] = test system: 3T3-L1 adipocytes; assay: Insulin-stimulated glucose uptake (2-deoxy-D-glucose) in differentiated 3T3-L1 adipocytes; format: cell-based
Source text: Adipocyte differentiation was then induced using standard protocol. […] The maintenance medium was changed every 3 days until the cells were utilized for experimentation. […] In each instance, the medium was changed twice a day. […]

[7] = test system: db/db mice; assay: Oral glucose tolerance test (OGTT) in db/db mice; format: in vivo
Description: OGTT was performed in db/db mice after dosing of either 3 or 10 mg/kg of the compound of Example 1 for 9 days. The animals were dosed with 10% glucose in water in a volume of 10 mL/kg. Blood samples were taken at 0, 30, 60 and 120 min post dose.

[8] = test system: high cholesterol-fed rats; assay: Changes in plasma lipid parameters (high cholesterol-fed rats); format: in vivo; conditions: 10 mg/kg
Description: Blood was collected and analyzed for non-fasted total cholesterol and free fatty acid levels. The results are calculated as the percent reduction relative to vehicle control.

[9] = oral, 4 days, vs vehicle control

## CCOC(Cc1ccc(OCCn2c(C(F)(F)F)nc3cc(F)ccc32)cc1)C(=O)O (stereo not drawn) [Example 4, 3-(4-{2-[5-fluoro-2-(trifluoromethyl)-1H-benzimidazol-1-yl]ethoxy}phenyl)-2-ethoxypropanoic acid]
[1]; 3 mg/kg
  BG % max reduction d14: 68** %
  Fatty Acid % max reduction d14: 25** %
  Insulin % max reduction d14: 79** (d14) %
  TG % max reduction d14: 64** %
[1]; 10 mg/kg
  BG % max reduction d14: 73** %
  Fatty Acid % max reduction d14: 27** %
  Insulin % max reduction d14: 79** (d14) %
  TG % max reduction d14: 58** %

## CCOC(Cc1ccc(OCCn2c(C(F)(F)F)nc3ccccc32)cc1)C(=O)O (racemic) [Example 1, 2-ethoxy-3-(4-{2-[2-(trifluoromethyl)-1H-benzimidazol-1-yl]ethoxy}phenyl)propanoic acid]
[2]; 3 mg/kg
  ApoA1 % increase: 52%
  HDL Cholesterol % increase: 47* %
  TG % decrease: 52* %
[2]; 10 mg/kg
  ApoA1 % increase: 137%
  HDL Cholesterol % increase: 73** %
  TG % decrease: 56** %
[2]; 30 mg/kg
  ApoA1 % increase: 186%
  HDL Cholesterol % increase: 51** %
  TG % decrease: 67** %
[2]; through increase in human ApoA1 levels
  HDL-cholesterol (in words): greatly increased HDL-cholesterol
[3]; 6 hours, read-out: PPAR-γ EC50
  EC50: 0.04 µM
[3]; relative to Rosiglitazone = 100
  PPAR-γ % Max: 62%
[4]
  EC50: 50 µM
  PPAR-δ % Max: 68%
[5]; 6 hours, read-out: PPAR-α EC50
  EC50: 17.2 µM
[5]; relative to Reference (α) = 100
  PPAR-α % Max: 44%
[1]; 3 mg/kg
  Insulin % max reduction d7: 85** (d7) %
  BG % max reduction d14: 69** %
  Fatty Acid % max reduction d14: 47** %
  TG % max reduction d14: 52** %
[1]; 10 mg/kg
  Insulin % max reduction d7: 87** (d7) %
  BG % max reduction d14: 73** %
  Fatty Acid % max reduction d14: 72** %
  TG % max reduction d14: 55** %
[6]; 1 μM compound in the presence of 100 nM insulin, 48 h, FIG. 1
  glucose transport activity: significantly increased
[6]; separate treatment: 1 μM compound alone or 100 nM insulin alone, 48 h, 3T3-L1 adipocytes
  glucose transport: increase in glucose transport
[7]; 3 mg/kg for 9 days
  AUC for blood glucose, reduction vs vehicle control: 49%
[7]; 10 mg/kg for 9 days
  AUC for blood glucose, reduction vs vehicle control: 48%
[8]
  plasma total cholesterol and free fatty acid levels (in words): significantly reduced
[8]; [9]
  Free Fatty Acid % reduction: 68** %
  Total Cholesterol % reduction: 69** %

## CCOC(Cc1ccc(OCCn2c(C(F)(F)C(F)(F)F)nc3ccccc32)cc1)C(=O)O (stereo not drawn) [Example 2, 2-ethoxy-3-(4-{2-[2-(pentafluoroethyl)-1H-benzimidazol-1-yl]ethoxy}phenyl)propanoic acid]
[1]; 3 mg/kg
  BG % max reduction d14: 57** %
  Fatty Acid % max reduction d14: 45** %
  Insulin % max reduction d14: 59** (d14) %
  TG % max reduction d14: 50** %
[1]; 10 mg/kg
  BG % max reduction d14: 75** %
  Fatty Acid % max reduction d14: 71** %
  Insulin % max reduction d14: 75** (d14) %
  TG % max reduction d14: 70** %

## CCO[C@@H](Cc1ccc(OCCn2c(C(F)(F)F)nc3ccccc32)cc1)C(=O)O [Example 6, (2S)-3-{4-[2-(2-trifluoromethyl-benzoimidazol-1-yl)-ethoxy]-phenyl}-2-ethoxy-propionic acid]
[1]; 3 mg/kg
  Insulin % max reduction d7: 87** (d7) %
  BG % max reduction d14: 53** %
  Fatty Acid % max reduction d14: 54** %
  TG % max reduction d14: 62** %
[1]; 10 mg/kg
  Insulin % max reduction d7: 86** (d7) %
  BG % max reduction d14: 73** %
  Fatty Acid % max reduction d14: 60** %
  TG % max reduction d14: 66** %
[6]; each enantiomer vs racemate, FIG. 2
  insulin-stimulated glucose uptake, enantio-dependency: statistically significant difference (P<0.01) over racemate

## CCCCCCCCCCCCCCSCC(=O)O [TTA (δ), reference compound]
[4]
  EC50: 38 µM
  PPAR-δ % Max: 100%

## CCOC(Cc1ccc(OCCn2c(C(F)(F)F)nc3cc(C(F)(F)F)ccc32)cc1)C(=O)O (stereo not drawn) [Example 3, 3-(4-{2-[2,5-bis(trifluoromethyl)-1H-benzimidazol-1-yl]ethoxy}phenyl)-2-ethoxypropanoic acid]
[1]; 3 mg/kg
  BG % max reduction d14: 77** %
  Fatty Acid % max reduction d14: 49** %
  Insulin % max reduction d14: 76** (d14) %
  TG % max reduction d14: 61** %
[1]; 10 mg/kg
  BG % max reduction d14: 77** %
  Fatty Acid % max reduction d14: 76** %
  Insulin % max reduction d14: 79** (d14) %
  TG % max reduction d14: 77** %
